Reference: patent US20100087439A1, “NOVEL […]/OR THERAPEUTIC AGENT FOR NEUROPATHIC PAIN” (ASTELLAS PHARMA INC., priority 2007, published 2010)
Read-outs that look alike come from different tables or passages of the source. Each block holds one compound with its values, some of them ahead of it.

Legend:
[1] = test system: CYP; test: CYP inhibitory activity; type: in vitro ADME; conditions: no method or isoform given
[2] = test system: L5/L6 spinal nerve ligation models; type: in vivo, male SD rats
Experimental: The evaluation of an analgesic effect on neuropathic pain was performed according to the method of Kim et al. using L5/L6 spinal nerve ligation models. That is, the left L5 and L6 sciatic nerves of male SD rats were tightly ligated with a silk thread under pentobarbital anesthesia, and thereafter, the evaluation was performed. As the assessment of pain behavior, a von Frey Test on the plantar surface of the animals was employed (Pain, vol. 50, pp. 355-363, 1992). That is, the plantar surface of the operated limb of the nerve ligation rat was stimulated by using von Frey Filament until a withdrawal response was observed, and the lowest amount of force (g) required to elicit withdrawal response was defined as a pain threshold. […] Each of a vehicle and diluted solutions obtained by diluting (±)-2-[(inden-7-yloxy)methyl]morpholine hydrochloride (indeloxazine hydrochloride), (+)-2-[(inden-7-yloxy)methyl]morpholine hydrochloride ((+)-indeloxazine hydrochloride), (−)-2-[(inden-7-yloxy)methyl]morpholine hydrochloride ((−)-indeloxazine hydrochloride), or duloxetine with a vehicle so as to give a dose of 30 mg/kg (calculated as a salt free form) was orally administered to rats in each group. The oral absorption of venlafaxine is poor, therefore, venlafaxine was intraperitoneally administered. As the vehicle, distilled water was used. A pain threshold was measured at 3 hours after administration in the case of duloxetine, and at 1 hour after administration in the case of the other compounds. An analgesic effect of each compound was examined based on recovery of the pain threshold in the each compound administration group compared with that in the vehicle administration group, as S. K. Joshi et al. described (Neuroscience, vol. 143, pp. 587-596, 2006).
The numerical values in the table indicate a mean value±standard error of the mean (SEM) of recovery ratios of thresholds of compounds when the pain threshold of the normal side paw is regarded as 100% and the pain threshold of the operated side paw is regarded as 0%.

[3] = 30 mg/kg (calculated as a salt free form), p.o., measured 1 hour after administration, mean ± SEM, hydrochloride
[4] = oral dose of 30 mg/kg (salt free form), 1 hour after administration, Student's t-test

CYP inhibitory activity (in words) [1]: extremely weak CYP inhibitory activity
Compound: C1=Cc2cccc(OCC3CNCCO3)c2C1 (single isomer, unassigned; (+)) [(+)-2-[(inden-7-yloxy)methyl]morpholine]

Compound: C1=Cc2cccc(OCC3CNCCO3)c2C1.Cl (single isomer, unassigned; (-)) [(−)-Indeloxazine hydrochloride, (−)-2-[(inden-7-yloxy)methyl]morpholine hydrochloride]
% Effect (recovery ratio of pain threshold; normal side paw = 100%, operated side paw = 0%) [2, 3]: 115.7 ± 22.0 % | recovery in the pain threshold compared with the vehicle group (in words) [2, 4]: significant recovery in the pain threshold

Compound: C1=Cc2cccc(OCC3CNCCO3)c2C1.Cl (racemic) [(±)-Indeloxazine hydrochloride, (±)-2-[(inden-7-yloxy)methyl]morpholine hydrochloride]
% Effect (recovery ratio of pain threshold; normal side paw = 100%, operated side paw = 0%) ([2]; 30 mg/kg (calculated as a salt free form), p.o., measured 1 hour after administration, mean ± SEM): 94.3 ± 24.6 % | recovery in the pain threshold compared with the vehicle group (in words) [2, 4]: significant recovery in the pain threshold

Compound: CNCC[C@H](Oc1cccc2ccccc12)c1cccs1 [Duloxetine, (S)—N-methyl-γ-(1-naphthalenyloxy)-2-thiophenepropanamine, reference compound]
% Effect (recovery ratio of pain threshold; normal side paw = 100%, operated side paw = 0%) ([2]; rat, in vivo): 49.3 ± 25.3% | recovery in the pain threshold compared with the vehicle group (in words) ([2]; rat, in vivo): a significant recovery in the threshold was not observed

Compound: C1=Cc2cccc(OCC3CNCCO3)c2C1.Cl (single isomer, unassigned; (+)) [(+)-Indeloxazine hydrochloride, (+)-2-[(inden-7-yloxy)methyl]morpholine hydrochloride]
% Effect (recovery ratio of pain threshold; normal side paw = 100%, operated side paw = 0%) [2, 3]: 94.5 ± 17.0 % | recovery in the pain threshold compared with the vehicle group (in words) [2, 4]: significant recovery in the pain threshold

Compound: COc1ccc(C(CN(C)C)C2(O)CCCCC2)cc1 (racemic) [Venlafaxine, (±)-1-[2-(dimethylamino)-1-(4-methoxyphenyl)ethyl]cyclohexanol, reference compound]
recovery in the pain threshold compared with the vehicle group (in words) ([2]; 30 mg/kg (salt free form), intraperitoneal, 1 hour after administration, Student's t-test): a significant recovery in the threshold was not observed
